# System: E6/E7LOW human hepatocytes
# Assay: Puromycin toxicity curves, LIVE/DEAD assay
# Format: cell-based
# Conditions: 653 (female) genotype
# Protocol: E6/E7LOW human hepatocytes puromycin toxicity curves: Puromycin (13884, Cayman chemical) was two-fold serially diluted from 10 μg/ml to 0.3 μg/ml in proliferation medium and applied to E6/E7LOW human hepatocytes growing in 96-well plate format. The cells were monitored and imaged daily and on the 3rd day post exposure were analyzed with a LIVE/DEAD assay (L3224, ThermoFischer). The puromycin concentration killing practically all cells in ˜3 days was defined as 2.5 μg/ml for the 653 (female) genotype and 5 µg/ml for the 422 (male) genotype cells.
smiles,measurement,value
COc1ccc(C[C@H](N)C(=O)N[C@H]2[C@@H](O)[C@H](n3cnc4c(N(C)C)ncnc43)O[C@@H]2CO)cc1 [Puromycin],puromycin concentration killing practically all cells in ˜3 days,2.5 µg/mL

# — US20250367329A1, “GENE THERAPY FOR TREATING MITOCHONDRIAL STRESS” (YISSUM RESEARCH DEVELOPMENT COMPANY OF THE HEBREW …, priority 2023, published 2025)
